Laboratory results from patent US7083969B2, “Serratia marcescens strain” (Korea Research Institute of Bioscience and Biotechnology, priority 1997, dated 2006).

Key:
[1] = Viability of spleen immune cells cultured in vitro (cytotoxicity); assay type: cell-based, mice; settings: mouse, immune cells separated from the spleen, cultured in vitro
Description: (§1) Germ-free test animals, mice BDF1 and B6C3F1, obtained from Genetic Resources Center, Korean Research Institute of Bioscience and Biotechnology in the Korean Institute of Science and Technology, were used for the assay of the immunosuppressive activity of prodigiosin. […] At such concentrations as show no cytotoxic effects, prodigiosin cannot suppress the immune response of B lymphocytes. […] This selective immunosuppression for T lymphocytes is not ascribed to the selective cytotoxicity for T lymphocytes. The same immunosuppression results as in the ex vivo experiments were obtained in in vivo experiments. When T lymphocyte activity was measured by use of a graft versus host reaction and a T cell-dependent antibody producing reaction, the prodigiosin suppressed the immune response, but exerted no toxicity on animals. Therefore, the immunosuppressive activity of the prodigiosin is thought to be attributed to the selective suppression for T lymphocyte activity.
(§2) Immune cells were separated from the spleens of the germ-free animals and cultured in vitro. The cultures were treated with the prodigiosin at various amounts from 3 nM to 30,000 nM and the viability of the cells were measured from the first day to the third day after the treatment. Based on the initial viability of the immune cells, the viabilities of the test groups were calculated. […] So, subsequent experiments for immunoactivity were carried out at not more than 100 nM in order to exclude the cytotoxicity and to measure only the immunosuppressive effect of the prodigiosin.

[2] = tested on: Immune cells separated from the spleens; assay: as above; assay type: cell-based, mice; settings: ex vivo experiments
Description: as §1, §2

[3] = tested on: CD8 T cell (cytotoxic T cell); assay: Selective cytotoxicity: proportion of CD8 T cells after treatment; assay type: cell-based, mice; settings: proportion of the cells
Description: as §1
(§3) Whether the selective immunosuppression of prodigiosin for T cells is attributed to the selective cytotoxicity for T cells or not was assayed by measuring the proportion of the cells. On the third day after treatment of the immune cells with prodigiosin, the number of the cells was counted. Because T lymphocytes consist of CD4 T cell (helper T cell) and CD8 T cell (cytotoxic T cell), the proportion of T and B lymphocytes was calculated in this Example.

T lymphocytes = assay: Graft versus host reaction in vivo (lymphatic node weight); design: species or system BDF1 mice; settings: for Wt. (mg) of Lymphatic node: sixth day after transplantation
Description: as §1
(§4) A graft versus host reaction was utilized for the in vivo assay of prodigiosin's immunosuppression. The graft versus host reaction enables an assessment of the immune response of T lymphocytes. On the sixth day after transplantation of the T lymphocytes of BDF1 mice different in histocompatibility antigen, the lymphatic nodes were measured for weight, thereby assessing the immune response of T lymphocyte to the grafted heteroantigens. The prodigiosin was peritoneally injected at a dose of 30–100 mg per kg of body weight for five days while cyclophosphamide, as a positive control, was peritoneally injected at a dose of 100 mg/kg for five days. The body weights of the injected mice were measured to compare the toxicity of prodigiosin with that of cyclophosphamide. […] As for the body weight, it was not changed in the mice injected with prodigiosin at an effective concentration.

[4] = Body weight of injected mice in graft versus host experiment (toxicity); assay type: in vivo
Description: as §4

B lymphocytes = assay: Selective cytotoxicity: proportion of B lymphocytes after treatment; assay type: cell-based, mice; settings: for Proliferation (%) B cell: proportion of the cells
Description: as §1, §3

B lymphocyte = assay: Antibody production of B lymphocytes stimulated with lipopolysaccharide; assay type: cell-based, mice; settings: for effect on antibody production / immune response of B lymphocytes (words): non-cytotoxic concentration range (3-100 nM)
Description: as §1
The influence of prodigiosin on the functions of lymphocytes was measured using three reaction systems. First, the ability of B lymphocyte to proliferate in response to lipopolysaccharide stimulus was assessed. For this, on the third day after stimulation with lipopolysaccharide, the antibody production of the B lymphocyte was measured. When B lymphocytes are stimulated with lipopolysaccharide, they can produce antibodies without the aid of T lymphocyte. Second, a mixed lymphocyte reaction was induced in order to assess the effect on T-cell response. The reaction needs no aids from the B lymphocyte. On the third day after two types of heteroimmune cells, which are different from each other in histocompatibility antigen, were mixed to stimulate the activity of T lymphocytes, the T-cell response-was assessed. Third, the T-cell dependent antibody producing reaction was utilized to assess the effect of prodigiosin on the simultaneous immune response of both of the B and T lymphocytes. This reaction requires the functions of B and T lymphocytes, simultaneously. On the fifth day after immunization of the lymphocytes with the red blood cells of sheep, their antibody production ability was assessed.
In Table 3, the values are relative to the immune response of the lymphocytes untreated with prodigiosin.

[5] = Weight ratio of the spleen to the body (toxicity); assay type: in vivo, mice
Description: A T cell-dependent immune response reaction was used to assess the influence of prodigiosin on T lymphocytes in vivo. Test animals were immunized with sheep red blood cells by peritoneal injection. 4 days after the immunization, the number of the antibody producing cells was counted. Prodigiosin was peritoneally injected everyday. Based on the number of the […] cells in the non-treated animals, the influence of prodigiosin on T lymphocytes in vivo was assessed as percentage. Also, the weight ratio of the spleen to the body was measured to assay the toxicity of prodigiosin to the animals. Cyclophosphamide was used as a positive control.

CD8 T lymphocytes = assay: Immunosuppressive activity on CD8 T lymphocytes; assay type: cell-based
[6] = 3 nM, third day after treatment
[7] = 10 mg/kg peritoneally for five days
[8] = 30 mg/kg peritoneally for five days

With `CCCCCC1=C/C(=C/c2[nH]c(-c3ccc[nH]3)cc2OC)N=C1C` [Prodigiosin, prodigiosin] the viability at 1 day, 0.003 µM ([1]; 3 nM, 1st day after treatment, based on initial viability) was 96%, the viability at 2 day, 0.003 µM ([1]; 3 nM, 2nd day after treatment, based on initial viability) was 86% and the viability at 3 day, 0.003 µM ([1]; 3 nM, 3rd day after treatment, based on initial viability) was 79%. For the same molecule, the viability at 1 day, 0.01 µM ([1]; 10 nM, 1st day) was 89%, the viability at 2 day, 0.01 µM ([1]; 10 nM, 2nd day) was 82% and the viability at 3 day, 0.01 µM ([1]; 10 nM, 3rd day) was 79%. The viability at 1 day, 0.03 µM ([1]; 30 nM, 1st day) was 89%, the viability at 2 day, 0.03 µM ([1]; 30 nM, 2nd day) was 70% and the viability at 3 day, 0.03 µM ([1]; 30 nM, 3rd day) was 81%. The viability at 1 day, 0.1 µM ([1]; 100 nM, 1st day) was 82%, the viability at 2 day, 0.1 µM ([1]; 100 nM, 2nd day) was 70% and the viability at 3 day, 0.1 µM ([1]; 100 nM, 3rd day) was 70%. For the same molecule, the viability at 1 day, 0.3 µM ([1]; 300 nM, 1st day) was 68%, the viability at 2 day, 0.3 µM ([1]; 300 nM, 2nd day) was 14% and the viability at 3 day, 0.3 µM ([1]; 300 nM, 3rd day) was 18%. The viability at 1 day, 1000 nM ([1]; 1,000 nM, 1st day) was 74%, the viability at 2 day, 1000 nM ([1]; 1,000 nM, 2nd day) was 14% and the viability at 3 day, 1000 nM ([1]; 1,000 nM, 3rd day) was 14%. For the same molecule, the viability at 1 day, 3000 nM ([1]; 3,000 nM, 1st day) was 61%, the viability at 2 day, 3000 nM ([1]; 3,000 nM, 2nd day) was 9% and the viability at 3 day, 3000 nM ([1]; 3,000 nM, 3rd day) was 8%. The viability at 1 day, 10000 nM ([1]; 10,000 nM, 1st day) was 32%, the viability at 2 day, 10000 nM ([1]; 10,000 nM, 2nd day) was 4% and the viability at 3 day, 10000 nM ([1]; 10,000 nM, 3rd day) was 4%. The viability at 1 day, 30000 nM ([1]; 30,000 nM, 1st day) was 4%, the viability at 2 day, 30000 nM ([1]; 30,000 nM, 2nd day) was 4% and the viability at 3 day, 30000 nM ([1]; 30,000 nM, 3rd day) was 4%. For the same molecule, the “concentration with no cytotoxic effects” value [2] was “less than 100 nM”, the “Proliferation (%) CD8 T cell” value [3, 6] was 13% and the “Proliferation (%) CD8 T cell” value ([3]; 10 nM, third day) was 13%. For the same molecule, the “Proliferation (%) CD8 T cell” value ([3]; 30 nM, third day) was 12%, the “Proliferation (%) CD8 T cell” value ([3]; 100 nM, third day) was 10% and the “Wt. (mg) of Lymphatic node” value (T lymphocytes; [7]) was 1.12 mg. The “Wt. (mg) of Lymphatic node” value (T lymphocytes; [8]) was 0.98 mg, the “immune response of T lymphocytes in graft versus host reaction” value (T lymphocytes; peritoneal injection for five days) was “potentially suppress” and the “Body weight” value [4, 7] was 20 g. For the same molecule, the “Body weight” value [4, 8] was 21 g, the “body weight change” value ([4]; at an effective concentration) was “not changed” and the “Proliferation (%) B cell” value (B lymphocytes; [6]) was 47%. For the same molecule, the “Proliferation (%) B cell” value (B lymphocytes; 10 nM, third day) was 49%, the “Proliferation (%) B cell” value (B lymphocytes; 30 nM, third day) was 50% and the “Proliferation (%) B cell” value (B lymphocytes; 100 nM, third day) was 52%. For the same molecule, the “selective cytotoxicity for B, CD4 T and CD8 T lymphocytes” value (B lymphocytes; B, CD4 T and CD8 T cell proportions, 3-100 nM, third day) was “no selective cytotoxicity”, the “Immune Response (%) B cell” value (B lymphocyte; 3 nM, antibody production, third day after lipopolysaccharide, relative to untreated lymphocytes) was 116% and the “Immune Response (%) B cell” value (B lymphocyte; 10 nM, third day) was 108%. For the same molecule, the “Immune Response (%) B cell” value (B lymphocyte; 30 nM, third day) was 100%, the “Immune Response (%) B cell” value (B lymphocyte; 100 nM, third day) was 97% and the “effect on antibody production / immune response of B lymphocytes (words)” value (B lymphocyte) was “no influence”. For the same molecule, the “effect on antibody production / immune response of B lymphocytes (words)” value (B lymphocyte; listed as prodigiosin) was “not at all”, the “Wt. Ratio of spleen/body (%)” value ([5]; 10 mg/kg peritoneally everyday) was 95% and the “Wt. Ratio of spleen/body (%)” value ([5]; 30 mg/kg peritoneally everyday) was 84%. For the same molecule, the “toxicity judged by weight ratio of the spleen to the body” value ([5]; at effective concentrations) was “no toxicity” and the “immunosuppressive activity on CD8 T lymphocytes” value (CD8 T lymphocytes) was “has an immunosuppressive activity”.
